{"source": "patent US20230364051A1", "about": "“FORMULATIONS AND METHODS FOR IMPROVING AVIAN HEALTH” (CORNELL UNIVERSITY, priority 2022, published 2023)", "key": {"DcytB": {"test_system": "DcytB", "assay": "Duodenal gene expression by RT-qPCR: DcytB", "type": "in vivo, Gallus gallus", "details": "genistein treatment groups vs no injection, H2O and inulin, p < 0.05; duodenum", "experimental": "(§1) Cornish-cross fertile broiler eggs (Gallus gallus, n = 39) were obtained from a commercial hatchery (Moyer’s chicks, Quakertown, PA, USA). The eggs were incubated under optimal conditions at the Cornell University Animal Science Poultry Farm Incubator [18]. All animal protocols were approved by Cornell University Institutional Animal Care and Use committee (IACUC #2020-0077). At day 17 of embryonic incubation, eggs containing viable embryos were weighed and divided into 5 groups, with all treatment groups assigned eggs of similar weight frequency distribution. Each group was then injected with the specific solution (1 mL per egg) with a 21-gauge needle into the amniotic fluid. Treatments in powder form were separately diluted in DI H2O. […]\n(§2) Total RNA was extracted from 30 mg of the proximal duodenal (n=6) or liver tissues (n=6) using Qiagen RNeasy Mini Kit (Qiagen Inc., Valencia, CA) according to the manufacturer’s protocol. […] RNA was quantified by absorbance at 260-280 nm using a NanoDrop 2000 (ThermoFisher Scientific, Waltham, MA). […]\n(§3) As previously described. cDNA was generated using a 20 uL reverse transcriptase (RT) reaction in a BioRad C1000 touch thermocycler using the Improm-II Reverse Transcriptase Kit (Catalog #A1250; Promega, Madison, WI, USA). […] Genomic DNA contamination was assessed using a RT-PCR assay for the reference of genes samples. […]"}, "[1]": {"assay": "Body weight and cecum weight at hatch after intraamniotic administration", "type": "in vivo, Gallus gallus", "details": "for Average Body Weight / Average Cecum Weight: day 17, at hatch", "experimental": "(§4) Cornish-cross fertile broiler eggs (Gallus gallus, n = 39) were obtained from a commercial hatchery (Moyer’s chicks, Quakertown, PA, USA). The eggs were incubated under optimal conditions at the Cornell University Animal Science Poultry Farm Incubator [18]. All animal protocols were approved by Cornell University Institutional Animal Care and Use committee (IACUC #2020-0077). At day 17 of embryonic incubation, eggs containing viable embryos were weighed and divided into 5 groups, with all treatment groups assigned eggs of similar weight frequency distribution. Each group was then injected with the specific solution (1 mL per egg) with a 21-gauge needle into the amniotic fluid. Treatments in powder form were separately diluted in DI H2O. Two treatment groups (1.25, 2.5 wt. %), two controls (H2O and non-injected), and a positive control (5 wt. % inulin) were administered. After injection, the injection holes were sealed with cellophane tape and the eggs were placed in hatching baskets such that each treatment was equally represented at each incubator location. Immediately upon hatch (day 21), blood was taken for hemoglobin determination and all chicks were then euthanized by CO2 exposure. The small intestine, pectoral muscle, cecum, and liver were collected, immediately frozen in liquid nitrogen, and then stored in a -80° C. freezer until analysis."}, "[2]": {"assay": "Blood hemoglobin (QuantiChrom Hemoglobin Assay) at hatch after intraamniotic administration", "type": "in vivo, Gallus gallus", "details": "for Average Hb: day 17, blood at hatch", "experimental": "as §4, with “All animal protocols were approved by Cornell University Institutional Animal Care and Use committee (IACUC #2020-0077). At day 17 of embryonic incubation, eggs containing viable embryos were weighed and divided into 5 groups, with all treatment groups assigned eggs of similar weight frequency distribution.” left out, “Two treatment groups (1.25, 2.5 wt. %), two controls (H2O and non-injected), and a positive control (5 wt. % inulin) were administered.” left out\nBlood was collected using micro-hematocrit heparinized capillary tubes (Fisher Scientific, Waltham, MA, USA). Blood Hb concentrations were determined spectrophotometrically using the QuantiChromTM Hemoglobin Assay (DIHB-250, BioAssay Systems, Hayward, CA, USA) following the kit manufacturer’s instructions."}, "DMT1": {"test_system": "DMT1", "assay": "Duodenal gene expression by RT-qPCR: DMT1", "type": "in vivo, Gallus gallus", "details": "1.25 wt. % genistein vs no injection and H2O controls, p < 0.05; duodenum", "experimental": "as §1, §2, §3"}, "Hepcidin": {"test_system": "Hepcidin", "assay": "Liver gene expression by RT-qPCR: hepcidin", "type": "in vivo, Gallus gallus", "details": "genistein exposure vs no injection, p < 0.05", "experimental": "as §1, §2, §3"}, "[3]": {"test_system": "gut bacterial populations", "details": "mice fed a high fat diet; cited from earlier work"}, "[4]": {"assay": "Pectoral muscle glycogen analysis after intraamniotic administration", "type": "in vivo, Gallus gallus", "details": "for Average Glycogen: day 17, pectoral muscle at hatch", "experimental": "as §4\nGlycogen analysis was obtained from pectoralis muscle as previously described. Briefly, the frozen pectoral muscle samples were homogenized in 8 wt. % perchloric acid. Samples were then centrifuged at 12,000 × g for 15 minutes. The supernatant was removed, and 1.0 mL of petroleum ether was added to each tube. After mixing, the petroleum ether fraction was removed and samples from the bottom layer were transferred to a 96-well plate containing 300 µL of color reagent. All samples were read at a wavelength of 450 nm in an ELISA reader and the amount of glycogen was calculated according to a standard curve. The amount of glycogen present in pectoral sample was determined by multiplying the weight of the tissue by the amount of glycogen per 1 g of wet tissue."}, "[5]": {"details": "1.25 wt. % genistein intraamniotic"}, "[6]": {"details": "2.5 wt. % genistein intraamniotic"}}, "note": "Marks after values point to notes of the source that are not given here."}
{"smiles": "O=c1c(-c2ccc(O)cc2)coc2cc(O)cc(O)c12", "note": "[Genistein, genistein]", "values": [{"measurement": "Gene expression of DcytB", "setting": "DcytB", "value": "significantly downregulated"}, {"measurement": "Average Body Weight", "setting": "[1]; [5]", "value": "45.83 ± 0.99 ^ab g"}, {"measurement": "Average Cecum Weight", "setting": "[1]; [5]", "value": "0.50 ± 0.04 ^ab g"}, {"measurement": "Average Body Weight", "setting": "[1]; [6]", "value": "47.69 ± 1.30 ^a g"}, {"measurement": "Average Cecum Weight", "setting": "[1]; [6]", "value": "0.44 ± 0.03 ^b g"}, {"measurement": "Body weight vs control", "setting": "[1]; 2.5 wt. % genistein vs non-injected group, p < 0.05", "value": "significantly higher"}, {"measurement": "Cecum weight of no injection and H2O groups compared to treated group", "setting": "[1]; 2.5 wt. % genistein, p < 0.05", "value": "significantly greater values"}, {"measurement": "Average Hb", "setting": "[2]; [5]", "value": "14.98 ± 0.45 ^a g/dL"}, {"measurement": "Blood hemoglobin (Hb) levels vs controls", "setting": "[2]; 1.25 wt. % genistein vs No Injection, H2O and 5 wt. % inulin, p < 0.05", "value": "significantly elevated"}, {"measurement": "Average Hb", "setting": "[2]; [6]", "value": "14.23 ± 0.79 ^ab g/dL"}, {"measurement": "Blood hemoglobin vs controls", "setting": "[2]; 2.5 wt. % genistein vs H2O and 5 wt. % inulin", "value": "significantly higher"}, {"measurement": "Blood hemoglobin vs control", "setting": "[2]; 2.5 wt. % genistein vs No Injection", "value": "higher"}, {"measurement": "Gene expression of DMT1", "setting": "DMT1", "value": "downregulated"}, {"measurement": "Gene expression of hepcidin", "setting": "Hepcidin", "value": "significantly upregulated"}, {"measurement": "Gut bacterial populations associated with decreasing levels of lipopolysaccharide", "setting": "[3]", "value": "increased"}, {"measurement": "Average Glycogen", "setting": "[4]; [5]", "value": "0.008 ± 0.003 ^ab mg/g"}, {"measurement": "Average Glycogen", "setting": "[4]; [6]", "value": "0.015 ± 0.004 ^a mg/g"}, {"measurement": "Average glycogen vs control", "setting": "[4]; genistein treated groups vs no injection, p > 0.05", "value": "no significant difference"}]}
